Experiments:
Conditions in all cases: primary screen
[1] = system: ENR+CD organoids (ISC to Paneth cell differentiation); experiment: Primary screen: basal (non-stimulated) lysozyme secretion LYZ.NS, 2.5-D 384-well ENR+CD organoid differentiation; type: cell-based, mouse
From the text: (§1) High-throughput screening.

ENR+CD organoids = experiment: Primary screen: ATP (CellTiter-Glo 3D, CTG) cell number/viability, 2.5-D 384-well ENR+CD organoids;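 further: compounds given at plating and again on day 3 over a 6-day differentiation from ENR+CV stem-cell-enriched precursors, ATP measured on day 6, plate median as control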
[2] = system: ENR+CD organoids (ISC to Paneth cell differentiation); experiment: Primary screen: CCh-stimulated lysozyme secretion LYZ.S, 2.5-D 384-well ENR+CD organoid differentiation; type: cell-based, mouse
From the text: as §1

| Compound | Dose.FC.LYZ.NS (log2 fold change) ([1]; dose 0.08 uM) | Z.LYZ.NS (standard z score) ([1]; dose 0.08 uM) | Dose.FC.LYZ.NS (log2 fold change) ([1]; dose 0.40 uM) | Z.LYZ.NS (standard z score) ([1]; dose 0.40 uM) | Dose.FC.LYZ.NS (log2 fold change) ([1]; dose 2.00 uM) | Z.LYZ.NS (standard z score) ([1]; dose 2.00 uM) | Dose.FC.LYZ.NS (log2 fold change) ([1]; dose 10.00 uM) | Z.LYZ.NS (standard z score) ([1]; dose 10.00 uM) | Dose.FC.CTG (log2 fold change) (ENR+CD organoids; dose 0.08 uM) | Z.CTG (standard z score) (ENR+CD organoids; dose 0.08 uM) | Dose.FC.CTG (log2 fold change) (ENR+CD organoids; dose 0.40 uM) | Z.CTG (standard z score) (ENR+CD organoids; dose 0.40 uM) | Dose.FC.CTG (log2 fold change) (ENR+CD organoids; dose 2.00 uM) | Z.CTG (standard z score) (ENR+CD organoids; dose 2.00 uM) | Dose.FC.CTG (log2 fold change) (ENR+CD organoids; dose 10.00 uM) | Z.CTG (standard z score) (ENR+CD organoids; dose 10.00 uM) | Dose.FC.LYZ.S (log2 fold change) ([2]; dose 0.08 uM) | Dose.FC.LYZ.S (log2 fold change) ([2]; dose 0.40 uM) | Dose.FC.LYZ.S (log2 fold change) ([2]; dose 2.00 uM) | Dose.FC.LYZ.S (log2 fold change) ([2]; dose 10.00 uM) |
| --- | --- | --- | --- | --- | --- | --- | --- | --- | --- | --- | --- | --- | --- | --- | --- | --- | --- | --- | --- | --- |
| CC(C)c1ccc(NC(=O)Cn2cnc3c2c(=O)n(C)c(=O)n3C)cc1 [HC-030031] | 0.063 | 0.547 | 0.033 | 0.291 | −0.007 | −0.057 | −0.047 | −0.411 | 0.082 | 0.195 | 0.191 | 0.457 | −0.008 | −0.019 | −0.241 | −0.575 | 0.090 | 0.097 | −0.035 | 0.077 |
| O=C1[C@H](Cc2ccc(O)cc2)N2C(=O)CCN(C(=O)NCc3ccccc3)[C@H]2CN1Cc1cccc2ccccc12 [ICG-001] | 0.037 | 0.324 | 0.037 | 0.321 | 0.045 | 0.396 | −0.125 | −1.093 | 0.104 | 0.249 | 0.104 | 0.248 | 0.143 | 0.343 | −0.416 | −0.993 | 0.163 | 0.204 | 0.017 | −0.124 |
| O=C(c1ccc(Nc2nccc(-c3cc4ccccc4s3)n2)cc1)N1CCC(N2CCCC2)CC1 [IKK-16 (IKK Inhibitor VII)] | 0.104 | 0.903 | 0.020 | 0.176 | −0.081 | −0.708 | −0.291 | −2.531 | 0.058 | 0.139 | −0.051 | −0.122 | −0.431 | −1.029 | −0.950 | −2.268 | 0.092 | 0.028 | −0.142 | −0.383 |
| O=C(Nc1cc(C(F)(F)F)cc(C(F)(F)F)c1)c1cc(Cl)ccc1O [IMD 0354] | 0.004 | 0.035 | 0.101 | 0.880 | 0.097 | 0.847 | −0.089 | −0.777 | −0.007 | – | 0.117 | – | 0.076 | – | −0.480 | – | −0.047 | 0.043 | 0.083 | −0.128 |
| O=C(O)CNC(=O)c1c(O)c2ccccc2n(Cc2ccccc2)c1=O [IOX2] | 0.029 | 0.254 | 0.028 | 0.246 | 0.043 | 0.376 | −0.045 | −0.388 | 0.149 | 0.356 | 0.078 | 0.185 | 0.097 | 0.232 | 0.001 | 0.002 | 0.047 | 0.071 | 0.001 | −0.049 |

— patent US20220323406A1, “METHODS AND COMPOSITIONS FOR DIFFERENTIATING STEM CELLS” (Massachusetts Institute of Technology, priority 2019, published 2022)
